Source: US12612410B2 (CHILDREN'S HOSPITAL MEDICAL CENTER, priority 2020, dated 2026)

Target: T1, FLT3 D835H (Homo sapiens, UniProt P36888, D835H)
T1 construct: host or cells: E. coli BL21-derived host (T7 phage) or HEK-293
T1 sequence (P36888 27-993 D835H): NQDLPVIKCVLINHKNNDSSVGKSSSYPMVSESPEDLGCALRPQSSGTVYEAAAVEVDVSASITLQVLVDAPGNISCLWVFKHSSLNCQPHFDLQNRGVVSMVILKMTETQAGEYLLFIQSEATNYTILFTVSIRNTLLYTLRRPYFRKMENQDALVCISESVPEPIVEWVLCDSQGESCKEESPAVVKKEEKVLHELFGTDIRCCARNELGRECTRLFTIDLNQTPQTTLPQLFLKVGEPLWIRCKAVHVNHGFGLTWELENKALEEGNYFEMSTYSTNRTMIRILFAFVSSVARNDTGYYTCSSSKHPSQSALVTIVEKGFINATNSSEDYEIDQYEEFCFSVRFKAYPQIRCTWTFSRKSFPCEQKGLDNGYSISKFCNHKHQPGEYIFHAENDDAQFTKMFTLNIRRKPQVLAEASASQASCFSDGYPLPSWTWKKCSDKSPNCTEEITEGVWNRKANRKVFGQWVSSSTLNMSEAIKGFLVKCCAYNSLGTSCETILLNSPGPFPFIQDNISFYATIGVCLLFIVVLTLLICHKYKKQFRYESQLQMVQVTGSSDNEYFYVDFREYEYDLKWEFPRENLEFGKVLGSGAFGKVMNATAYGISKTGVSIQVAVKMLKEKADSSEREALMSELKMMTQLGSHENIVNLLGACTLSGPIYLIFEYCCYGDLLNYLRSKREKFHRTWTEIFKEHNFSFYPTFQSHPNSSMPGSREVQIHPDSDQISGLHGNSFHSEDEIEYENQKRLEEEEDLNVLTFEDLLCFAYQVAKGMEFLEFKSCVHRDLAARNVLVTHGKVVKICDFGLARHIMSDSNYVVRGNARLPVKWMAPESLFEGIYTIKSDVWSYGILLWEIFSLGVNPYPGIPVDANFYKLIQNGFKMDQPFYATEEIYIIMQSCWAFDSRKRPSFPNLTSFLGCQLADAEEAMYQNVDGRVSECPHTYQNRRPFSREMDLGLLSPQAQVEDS
Test: DiscoverX KINOMEscan competition binding, FLT3 D835H
From the text: Kinase binding data were obtained for various exemplary compounds prepared according to Examples 1-24 using the DiscoverX KINOMVIEscan® active site-directed competition binding site-directed assay protocol described below. […] As a result, the data report thermodynamic interaction affinities (Kd values), rather than IC50 values that are dependent on ATP concentrations. The assay uses a DNA-tagged version of the protein kinase, and an immobilized ligand bound to a solid support. Compounds that directly or indirectly prevent kinase binding to the immobilized ligand reduce the amount of kinase captured on the solid support, which is detected using an ultra-sensitive qPCR method. Affinity constants reported from the assay have been reported to be independent of the immobilized ligand used that is coupled to the solid support (See supplemental information in Fabian, M. A. et. al., (2005) Nat. Biotechnol. 23, 329-336; Wodicka, L. M. et. al., (2010) Chem. Biol. 17, 1241-1249.)
Kinase-tagged T7 phage strains were prepared in an E. coli host derived from the BL21 strain. E. coli were grown to log-phase and infected with T7 phage and incubated with shaking at 32° C. until lysis. The lysates were centrifuged and filtered to remove cell debris. The remaining kinases were produced in HEK-293 cells and subsequently tagged with DNA for qPCR detection. Streptavidin-coated magnetic beads were treated with biotinylated small molecule ligands for 30 minutes at room temperature to generate affinity resins for kinase assays. The liganded beads were blocked with excess biotin and washed with blocking buffer (SeaBlock (Pierce), 1% BSA, 0.05% Tween 20, 1 mM DTT) to remove unbound ligand and to reduce non-specific binding. Binding reactions were assembled by combining kinases, liganded affinity beads, and test compounds in 1× binding buffer (20% SeaBlock, 0.17×PBS, 0.05% Tween 20, 6 mM DTT). Test compounds were prepared as 111× stocks in 100% DMSO. Kds were determined using an 11-point 3-fold compound dilution series with three DMSO control points. All compounds for Kd measurements are distributed by acoustic transfer (non-contact dispensing) in 100% DMSO. The compounds were then diluted directly into the assays such that the final concentration of DMSO was 0.9%. All reactions were performed in polypropylene 384-well plates. Each was a final volume of 0.02 mL. The assay plates were incubated at room temperature with shaking for 1 hour and the affinity beads were washed with wash buffer (1×PBS, 0.05% Tween 20). The beads were then re-suspended in elution buffer (1×PBS, 0.05% Tween 20, 0.5 μM nonbiotinylated affinity ligand) and incubated at room temperature with shaking for 30 minutes. The kinase concentration in the eluates was measured by qPCR.
Binding constants (Kds) were calculated with a standard dose-response curve using the Hill equation. The Hill Slope was set to −1. Curves were fitted using a non-linear least square fit with the Levenberg-Marquardt algorithm.

Row | Structure (SMILES) | Kd
1 | FC(F)(F)COc1cn2c(-c3cccc(N[C@@H]4CCNC4)n3)cnc2cn1 [Compound 38, (R)-N-(pyrrolidin-3-yl)-6-(6-(2,2,2-trifluoroethoxy)imidazo[1,2-a]pyrazin-3-yl)pyridin-2-amine] | 0.24 nM
2 | CC(C)(O)c1cn2c(-c3cccc(N[C@H]4CNCC[C@@H]4F)n3)cnc2cn1 [Compound 31, 2-(3-(6-(((3S,4S)-4-fluoropiperidin-3-yl)amino)pyridin-2-yl)imidazo[1,2-a]pyrazin-6-yl)propan-2-ol] | 0.43 nM
3 | FC(F)c1cn2c(-c3cccc(N[C@H]4CNC[C@@H]4F)n3)cnc2cn1 [Compound 16, 6-(6-(difluoromethyl)imidazo[1,2-a]pyrazin-3-yl)-N-((3S,4S)-4-fluoropyrrolidin-3-yl)pyridin-2-amine] | 0.2 nM
4 | F[C@H]1CNC[C@@H]1Nc1cccc(-c2cnc3cnc(C4CC4)cn23)n1 [Compound 50, 6-(6-cyclopropylimidazo[1,2-a]pyrazin-3-yl)-N-((3S,4S)-4-fluoropyrrolidin-3-yl)pyridin-2-amine] | 0.032 nM
5 | FC(F)c1cn2c(-c3cccc(N[C@H]4CNCC[C@@H]4F)n3)cnc2cn1 [Compound 25, 6-(6-(difluoromethyl)imidazo[1,2-a]pyrazin-3-yl)-N-((3S,4S)-4-fluoropiperidin-3-yl)pyridin-2-amine] | 0.18 nM
6 | Cn1cc(-c2cn3c(-c4cccc(N[C@H]5CNC[C@@H]5F)n4)cnc3cn2)cn1 [Compound 52, N-((3S,4S)-4-fluoropyrrolidin-3-yl)-6-(6-(1-methyl-1H-pyrazol-4-yl)imidazo[1,2-a]pyrazin-3-yl)pyridin-2-amine] | 0.078 nM

Further lines, results first:

Row | Kd | Structure (SMILES)
7 | 0.082 nM | FC(F)(F)C1(c2cn3c(-c4cccc(N[C@@H]5CCNC5)n4)cnc3cn2)CC1 [Compound 10, (R)-N-(pyrrolidin-3-yl)-6-(6-(1-(trifluoromethyl)cyclopropyl)imidazo[1,2-a]pyrazin-3-yl)pyridin-2-amine]
8 | 0.066 nM | CC1(c2cn3c(-c4cccc(N[C@H]5CNC[C@@H]5F)n4)cnc3cn2)CC1 [Compound 1, N-((3S,4S)-4-fluoropyrrolidin-3-yl)-6-(6-(1-methylcyclopropyl)imidazo[1,2-a]pyrazin-3-yl)pyridin-2-amine]
9 | 0.063 nM | CC1(c2cn3c(-c4cccc(N[C@H]5CNCC56CC6)n4)cnc3cn2)CC1 [Compound 5, (R)-N-(6-(6-(1-methylcyclopropyl)imidazo[1,2-a]pyrazin-3-yl)pyridin-2-yl)-5-azaspiro[2.4]heptan-7-amine]
10 | 0.059 nM | CC1(c2cn3c(-c4cccc(N[C@@H]5CCNC5)n4)cnc3cn2)CC1 [Compound 3, (R)-6-(6-(1-methylcyclopropyl)imidazo[1,2-a]pyrazin-3-yl)-N-(pyrrolidin-3-yl)pyridin-2-amine]
11 | 1.2 nM | CC(C)(O)c1cn2c(-c3cccc(N[C@@H]4CCCNC4)n3)cnc2cn1 [Compound 30, (R)-2-(3-(6-(piperidin-3-ylamino)pyridin-2-yl)imidazo[1,2-a]pyrazin-6-yl)propan-2-ol]
